Laboratory results from patent publication US20260125374A1, “PI3K-ALPHA INHIBITORS AND METHODS OF MAKING AND USING THE SAME” (Relay Therapeutics, Inc., priority 2021, published 2026).
Marks after values point to notes of the source that are not given here.

Columns and labels:
[1] = test system: PIK3CA-mediated AKT phosphorylation in MCF10A cells overexpressing hotspot PIK3CA mutations (H1047R, E542K, E545K); assay: MCF10A Cell-Based PIK3CA Kinase Assay (CisBio Phospho-AKT (Ser473) HTRF assay); settings: Homo sapiens, MCF-10A, 2 hours compound incubation, read-out: Cell - PD - MCF10A H1047R/−−2483 (IC50)
Protocol: Selected compounds of the present disclosure were tested in a MCF10A Cell-Based PIK3CA Kinase Assay, namely the CisBio Phospho-AKT (Ser473) HTRF assay, to measure the degree of PIK3CA-mediated AKT phosphorylation. MCF10A cells (immortalized non-transformed breast cell line) overexpressing hotspot PIK3CA mutations (including H1047R, E542K, and E545K mutations) were used. Cells were seeded at 5,000 cells per well in DMEM/F12 (Thermo Fisher Scientific) supplemented with […], 100 ng/ml Cholera Toxin, 10 μg/mL insulin, and 0.5% horse serum. Once plated, cells were placed in a 5% CO2, 37° C. incubator to adhere overnight.
The following day, compounds were added to the cell plates in 12 doses of 1:3 serial dilutions. The dose response curves were run in duplicate. Compound addition was carried out utilizing an Echo 55 Liquid Handler acoustic dispenser (Labcyte). The cell plates were incubated for 2 hours in a 5% CO2, 37° C. incubator. Following compound incubation, the cells were lysed for 60 min at room temperature. Finally, a 4-hour incubation with the HTRF antibodies was performed at room temperature. All reagents, both lysis buffer and antibodies, were used from the CisBio pAKT S473 HTRF assay kit, as per the manufacturers protocol. Plates were read on an Envision 2105 (Perkin Elmer), and the IC50 values were calculated using Genedata software.

[2] = Stability of the process (III-1 in solution); type: physicochemical
[3] = Solubility in DCM/Methanol mixtures; type: physicochemical
Protocol: The solubility was evaluated on various ratio of DCM and Methanol mixtures.

[4] = Polymorph screening (equilibration, anti-solvent, slow evaporation, slow cooling, temperature cycling, heating-cooling; XRPD and SFC); type: physicochemical
Protocol: This polymorph screening program of compound I-1 free form was performed with two batches of the pure enantiomer. Both batches are crystalline and is assigned as Form A. The polymorphic behaviors of the enantiomer were investigated by equilibration at 25° C. and 50° C., equilibration under a temperature cycle, crystallization from hot saturated solutions by slow cooling, slow evaporation, precipitation by addition of anti-solvent, and DSC heating-cooling cycle experiments. Relative stability of identified polymorphs was investigated by competitive slurry experiments.
About 50 mg of I-1 Form A was weighed into a 2 mL glass vial and equilibrated in suitable amount of solvents (pretreated by molecular sieves) at 25° C. for 2 weeks with a stirring plate and with protection from light. Obtained suspensions were filtered with 0.45 μm nylon membrane and the solid parts (wet cake) were investigated by XRPD. When differences were observed, additional investigations were performed (e.g. DSC, TGA, ^1H-NMR, SFC).
About 50 mg of I-1 Form A was weighed into 2 mL glass vials and equilibrated in suitable amount of solvents (pretreated by molecular sieves) at 50° C. for 10 days with a stirring plate and with protection from light. Obtained suspensions were filtered with 0.45 μm nylon membrane and the solid parts (wet cake) were investigated by XRPD. When differences were observed, additional investigation was performed (e.g. DSC, TGA, ^1H-NMR, SFC).
I-1 Form A was dissolved in a good solvent. […] The solvents used were pretreated by molecular sieve. Precipitates were collected by filtration. The solid part (wet cake) was investigated by XRPD. […] When differences were observed, additional investigations were performed (e.g. DSC, TGA, ^1H-NMR, SFC).
Based on approximate solubility results, I-1 Form A was dissolved in suitable amount of solvents (pretreated by molecular sieves). Obtained solutions were filtered by 0.45 μm nylon filter. […] Solid residues were examined for their polymorphic form. When differences were observed, additional investigations were performed (e.g. DSC, TGA, ^1H-NMR, SFC).
Approximate 50 mg of batch I-1 Form A were dissolved in the minimal amount of selected solvents (without pretreatment by molecular sieves) at 50° C. Obtained solutions were filtered by 0.45 μm nylon filter. […] Precipitates were collected by filtration. The solid parts (wet cake) were investigated by XRPD. When differences were observed, additional investigations were performed (e.g. DSC, TGA, ^1H-NMR, SFC). When no precipitation was obtained or only a few solids were obtained, the solutions were placed at 5° C. for crystallization.
About 50 mg of I-1 Form A was equilibrated in different solvents (pretreated by molecular sieves) under a temperature cycle between 5° C. to 50° C. at a heating/cooling rate of 0.2° C./min for 10 cycles and with protection from light. After 10 cycles, precipitates were collected at 5° C. by filtration. The solid parts (wet cake) were investigated by XRPD. When differences were observed, additional investigations were performed (e.g. DSC, TGA, 1H-NMR, SFC).
Polymorphic behavior of I-1 Form A was investigated by two different heating-cooling cycles of DSC. Cycle 1:30° C. to 280° C. at 10° C./min; 280° C. to −20° C. at 20° C./min; reheat to 300° C. at 10° C./min. Cycle 2:30° C. to 280° C. at 10° C./min; 280° C. to-20° C. at 2° C./min; reheat to 300° C. at 10° C./min.

[5] = Stability of III-1 & I-1 solid; type: physicochemical; settings: after 38 days; initial 99.0%
[6] = Before stirring, 3 g product in solution
[7] = dissolved in DCM/MeOH/DMF, concentrated to 3V, 16 h, 40° C.
[8] = dissolved in MeOH, 34 h, 50° C.
[9] = dissolved in MeOH, 42 h, 50° C.
[10] = dissolved in MeOH, 60 h, 50° C.
[11] = dissolved in MeOH, stirred 18 h, 34° C.

[2H][C@@]1(c2cc(F)ccc2Cl)NC(=O)c2cc(-c3ccc4ncnn4c3C#N)cc(NC(=O)c3cc(F)cc(C(F)(F)F)c3)c21 [IV-2]
IC50 [1]: ≤ 1000 nM

N#Cc1c(-c2cc(NC(=O)c3cc(F)cc(C(F)(F)F)c3)c3c(c2)C(=O)NC3c2cc(F)ccc2Cl)ccc2ncnn12 (racemic) [III-1, N-(3-(2-chloro-5-fluorophenyl)-6-(5-cyano-[1,2,4]triazolo[1,5-a]pyridin-6-yl)-1-oxoisoindolin-4-yl)-3-fluoro-5-(trifluoromethyl)benzamide]
HPLC/RRT Purity, RRT 1.00 (purity of III-1) [2, 6]: 96.23%
HPLC/RRT Purity, impurity at RRT 0.41 [2, 6]: 0.10%
HPLC/RRT Purity, impurity at RRT 0.94 [2, 6]: 0.62%
HPLC/RRT Purity, impurity at RRT 1.37 [2, 6]: 1.98%
HPLC/RRT Purity, impurity at RRT 1.38 [2, 6]: 0.31%
impurity @RRT 1.26 generated ([2]; DCM/MeOH/DMF concentrated to 3V, 17 h at 40° C.): 0.15%
impurity @RRT 0.74 generated ([2]; MeOH, over 18 h at 34° C.): 0.15%
purity after stirring in MeOH ([2]; MeOH, over 18 h at 34° C.): 96.0%
impurity @RRT 0.74 ([2]; MeOH, over 60 h at 50° C.): 3.44%
purity after stirring in DCM/MeOH/DMF ([2]; concentrated to 3V under 40° C., stirred for 17 h at 40° C.): 94.57%
HPLC/RRT Purity, RRT 1.00 (purity of III-1) [2, 7]: 94.57%
HPLC/RRT Purity, impurity at RRT 0.41 [2, 7]: 0.11%
HPLC/RRT Purity, impurity at RRT 0.74 [2, 7]: 0.03%
HPLC/RRT Purity, impurity at RRT 0.94 [2, 7]: 0.68%
HPLC/RRT Purity, impurity at RRT 1.26 [2, 7]: 0.33%
HPLC/RRT Purity, impurity at RRT 1.37 [2, 7]: 2.51%
HPLC/RRT Purity, impurity at RRT 1.38 [2, 7]: 0.46%
HPLC/RRT Purity, RRT 1.00 (purity of III-1) [2, 8]: 93.53%
HPLC/RRT Purity, impurity at RRT 0.41 [2, 8]: 0.15%
HPLC/RRT Purity, impurity at RRT 0.74 [2, 8]: 2.49%
HPLC/RRT Purity, impurity at RRT 0.94 [2, 8]: 0.67%
HPLC/RRT Purity, impurity at RRT 0.96 [2, 8]: 0.20%
HPLC/RRT Purity, impurity at RRT 1.26 [2, 8]: 0.19%
HPLC/RRT Purity, impurity at RRT 1.37 [2, 8]: 2.13%
HPLC/RRT Purity, impurity at RRT 1.38 [2, 8]: 0.26%
HPLC/RRT Purity, RRT 1.00 (purity of III-1) [2, 9]: 92.67%
HPLC/RRT Purity, impurity at RRT 0.41 [2, 9]: 0.17%
HPLC/RRT Purity, impurity at RRT 0.74 [2, 9]: 2.98%
HPLC/RRT Purity, impurity at RRT 0.94 [2, 9]: 0.67%
HPLC/RRT Purity, impurity at RRT 0.96 [2, 9]: 0.25%
HPLC/RRT Purity, impurity at RRT 1.26 [2, 9]: 0.38%
HPLC/RRT Purity, impurity at RRT 1.37 [2, 9]: 2.15%
HPLC/RRT Purity, impurity at RRT 1.38 [2, 9]: 0.20%
HPLC/RRT Purity, RRT 1.00 (purity of III-1) [2, 10]: 91.45%
HPLC/RRT Purity, impurity at RRT 0.41 [2, 10]: 0.19%
HPLC/RRT Purity, impurity at RRT 0.74 [2, 10]: 3.45%
HPLC/RRT Purity, impurity at RRT 0.94 [2, 10]: 0.67%
HPLC/RRT Purity, impurity at RRT 0.96 [2, 10]: 0.40%
HPLC/RRT Purity, impurity at RRT 1.26 [2, 10]: 0.58%
HPLC/RRT Purity, impurity at RRT 1.37 [2, 10]: 2.26%
HPLC/RRT Purity, impurity at RRT 1.38 [2, 10]: 0.23%
HPLC/RRT Purity, RRT 1.00 (purity of III-1) [2, 11]: 95.98%
HPLC/RRT Purity, impurity at RRT 0.41 [2, 11]: 0.10%
HPLC/RRT Purity, impurity at RRT 0.74 [2, 11]: 0.15%
HPLC/RRT Purity, impurity at RRT 0.94 [2, 11]: 0.59%
HPLC/RRT Purity, impurity at RRT 1.37 [2, 11]: 2.33%
HPLC/RRT Purity, impurity at RRT 1.38 [2, 11]: 0.29%
solubility in DCM/MeOH=90:10 mixture [3]: limited solubility
ee %(SFC) ([4]; anti-solvent precipitation: MeOH / MTBE(4V), stirred at 25° C. for 23 days, SFC immediately after preparation): ee % (SFC): 2.7%*
ee %(SFC) ([4]; equilibration at 50° C. for 10 days in ACN/water(80:20, v/v), SFC immediately after preparation): ee % (SFC): 50.7%*.
ee %(SFC) ([4]; equilibration at 50° C. for 10 days in Acetone/water(60:40, v/v), SFC immediately after preparation): ee % (SFC): 56.9%*
ee %(SFC) ([4]; equilibration at 50° C. for 10 days in EtOH/water(50:50, v/v), SFC after preparation for about 12 h): ee % (SFC): 75.0%#;
ee %(SFC) ([4]; equilibration at 50° C. for 10 days in EtOH/water(50:50, v/v), SFC immediately after preparation): ee % (SFC): 76.9%*,
ee %(SFC) ([4]; equilibration at 50° C. for 10 days in Methanol, SFC immediately after preparation): ee % (SFC): 48.4%*
ee %(SFC) ([4]; slow evaporation from MeOH, SFC immediately after preparation): ee % (SFC): 68.6%*
ee %(SFC) ([4]; solid from crystallization from DMF/Acetone water, SFC immediately after preparation): ee % (SFC): −0.3%*
purity of solid after storage [5]: 99.1%
